Test results reported in the NIST ThermoML archive (doi:10.1021/je401057z).
± gives the expanded uncertainty stated by the source.

Conditions: Liquid

## CCc1ccccc1 [ethylbenzene]
447.2 K
  vapor or sublimation pressure: 250 ± 10 kPa

## Cc1ccc(C)cc1 [1,4-dimethylbenzene]
410.78 K, Ebulliometric method (Recirculating still)
  vapor or sublimation pressure: 100.04 ± 3.2 kPa
412.63 K, Ebulliometric method (Recirculating still)
  vapor or sublimation pressure: 105 ± 3.4 kPa
419.48 K, Ebulliometric method (Recirculating still)
  vapor or sublimation pressure: 124.93 ± 4 kPa
433.57 K, Ebulliometric method (Recirculating still)
  vapor or sublimation pressure: 174.88 ± 5.6 kPa
439.37 K, Ebulliometric method (Recirculating still)
  vapor or sublimation pressure: 199.86 ± 6.4 kPa
444.66 K, Ebulliometric method (Recirculating still)
  vapor or sublimation pressure: 224.86 ± 7.2 kPa
449.56 K, Ebulliometric method (Recirculating still)
  vapor or sublimation pressure: 250.04 ± 8 kPa
449.6 K, Ebulliometric method (Recirculating still)
  vapor or sublimation pressure: 250 ± 8 kPa

## Cc1cccc(C)c1 [1,3-dimethylbenzene]
450.1 K
  vapor or sublimation pressure: 250 ± 10 kPa

## Cc1ccccc1C [1,2-dimethylbenzene]
456.1 K
  vapor or sublimation pressure: 250 ± 10 kPa

## CC(C)CC(C)(C)C [2,2,4-trimethylpentane]
371.55 K
  vapor or sublimation pressure: 100.05 ± 3.5 kPa
373.4 K
  vapor or sublimation pressure: 104.94 ± 3.7 kPa
379.8 K
  vapor or sublimation pressure: 124.9 ± 4.3 kPa
386.94 K
  vapor or sublimation pressure: 149.96 ± 5.1 kPa
393.14 K
  vapor or sublimation pressure: 174.7 ± 6 kPa
398.64 K
  vapor or sublimation pressure: 199.94 ± 6.8 kPa
403.68 K
  vapor or sublimation pressure: 224.91 ± 7.6 kPa
408.28 K
  vapor or sublimation pressure: 249.95 ± 8.4 kPa
408.3 K
  vapor or sublimation pressure: 250 ± 8 kPa
